One test relates to HCT116 MTAP null cells. The experiment in a line: HCT116 MTAP null cell line proliferation / cell viability (CellTiter-Glo, 6 days). The note with it: 144 h; HCT116 MTAP null cells, 6 days treatment, CellTiter-Glo cell viability; read-out: HCT-116 MTAP null IC50. In kind it is cell-based. In a few lines: (§1)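 Anti-proliferative IC50s were derived from CellTiter-Glo signal in HCT116 parent and MTAP-null cells after six days on compound. Serial dilutions reached top concentrations of 1, 10 or 50 μM, with DMSO-only wells as control.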

The test system of a further test is HCT116 WT cells. Description: HCT116 WT (parent) cell line proliferation / cell viability (CellTiter-Glo, 6 days). In kind it is cell-based. The note with it: Homo sapiens, HCT-116, 144 h, 6 days treatment. In a few lines:
as §1
(In general: ATP-based viability assays read luminescence as a measure of living cells.)

IC50 data for 24 compounds are collected here from US20240124442A1, “TRICYCLIC-AMIDO-BICYCLIC PRMT5 INHIBITORS” (AMGEN INC., priority 2021, published 2024).

The structures appear in SMILES notation.

For orientation: IC50 means the concentration needed to halve the response being measured. As for `C[C@H]1OCc2c1c(N)nc1cnc(C(=O)N(C)[C@@H]3COc4cc(C(F)(F)F)ccc43)cc21` [Example 211, (3R)-4-amino-N,3-dimethyl-N-((3S)-6-(trifluoromethyl)-2,3-dihydro-1-benzofuran-3-yl)-1,3-dihydrofuro[3,4-c][1,7]-naphthyridine-8-carboxamide], the IC50 turned out to be 28 nM in the test on HCT116 MTAP null cells and 1460 nM with HCT116 WT cells.

Regarding `CN(C(=O)c1cc2c3c(c(N)nc2cc1F)COC3)C1COc2ncc(C(F)(F)F)cc21` [Example 212, 4-amino-7-fluoro-N-methyl-N-((3R)-5-(trifluoromethyl)-2,3-dihydrofuro[2,3-b]pyridin-3-yl)-1,3-dihydrofuro[3,4-c]-quinoline-8-carboxamide and 4-amino-7-fluoro-N-methyl-N-((3S)-5-(trifluoromethyl)-2,3-dihydrofuro[2,3-b]pyridin-3-yl)-1,3-dihydrofuro[3,4-c]quin-oline-8-carboxamide], the IC50 came to 495 nM with HCT116 MTAP null cells and 10700 nM in the test with HCT116 WT cells.

Regarding `CN(C(=O)c1cc2c3c(c(N)nc2cc1F)COC3)[C@@H]1COc2cc(-c3cnn(C)c3)ccc21` [Example 214, 4-amino-7-fluoro-N-methyl-N-((3S)-6-(1-methyl-1H-pyrazol-4-yl)-2,3-dihydro-1-benzofuran-3-yl)-1,3-dihydrofuro[3,4-c]-quinoline-8-carboxamide], the IC50 with HCT116 MTAP null cells was determined as 29 nM; in the test with HCT116 WT cells, 2060 nM.

Regarding `C[C@H]1OCc2c1c(N)nc1cc(F)c(C(=O)N(C)[C@@H]3COc4cc(-c5cnn(C)c5)ccc43)cc21` [Example 217, (3R)-4-amino-7-fluoro-N,3-dimethyl-N-((3S)-6-(1-methyl-1H-pyrazol-4-yl)-2,3-dihydro-1-benzofuran-3-yl)-1,3-dihydrofuro[3,4-c]quinoline-8-carboxamide], the half-maximal inhibitory concentration (IC50) in the test on HCT116 MTAP null cells is 10 nM; with HCT116 WT cells it was 1020 nM.

For the compound `CN(C(=O)c1cc2c3c(c(N)nc2cc1C#N)COC3)[C@@H]1COc2cc(C(F)(F)F)ccc21` [Example 218, 4-amino-7-cyano-N-methyl-N-((3S)-6-(trifluoromethyl)-2,3-dihydro-1-benzofuran-3-yl)-1,3-dihydrofuro[3,4-c]quin-oline-8-carboxamide], the 50% inhibitory concentration (IC50) in the test with HCT116 MTAP null cells was found to be 13 nM; in the test on HCT116 WT cells, 838 nM.

In the case of `CN(C(=O)c1ccc2nc(N)c3c(c2c1)CSC3)[C@@H]1COc2cc(C(F)(F)F)ccc21` [Example 219, 4-amino-N-methyl-N-((3S)-6-(trifluoromethyl)-2,3-dihydro-1-benzofuran-3-yl)-1,3-dihydrothieno[3,4-c]quinoline-8-carboxamide], the IC50 is 105 nM with HCT116 MTAP null cells and 2770 nM with HCT116 WT cells.

With `CN(C(=O)c1ccc2nc(N)c3ccncc3c2c1)[C@@H]1COc2cc(C(F)(F)F)ccc21` [Example 220, 5-amino-N-methyl-N-((3S)-6-(trifluoromethyl)-2,3-dihydro-1-benzofuran-3-yl)-benzo[c][2,6]naphthyridine-9-carboxamide], the values for the IC50 in the test on HCT116 MTAP null cells and in the test with HCT116 WT cells were 18 nM and 432 nM, respectively.

Turning to `CN(C(=O)c1ccc2nc(N)c3ncncc3c2c1)[C@@H]1COc2cc(C(F)(F)F)ccc21` [Example 221, 5-amino-N-methyl-N-((3S)-6-(trifluoromethyl)-2,3-dihydro-1-benzofuran-3-yl)pyrimido-[4,5-c]quinoline-9-carboxamide], the IC50 turned out to be 590 nM in the test on HCT116 MTAP null cells and 4290 nM in the test with HCT116 WT cells.

`Cc1nccc2c(N)nc3ccc(C(=O)N(C)[C@@H]4COc5cc(C(F)(F)F)ccc54)cc3c12` [Example 222, 5-amino-N,1-dimethyl-N-((3S)-6-(trifluoromethyl)-2,3-dihydro-1-benzofuran-3-yl)benzo[c][2,6]-naphthyridine-9-carboxamide]: the half-inhibitory concentration (IC50) with HCT116 MTAP null cells is 280 nM; with HCT116 WT cells, 3910 nM.

Take `CN(C(=O)c1cc2c(cn1)nc(N)c1ccncc12)[C@@H]1COc2cc(C(F)(F)F)ccc21` [Example 223, 5-amino-N-methyl-N-((3S)-6-(trifluoromethyl)-2,3-dihydro-1-benzofuran-3-yl)pyrido[4,3-c][1,7]naphthyridine-9-carboxamide]: the 50% inhibitory concentration (IC50) in the test with HCT116 MTAP null cells came out at 23 nM; in the test on HCT116 WT cells it was 437 nM.

For the compound `CN(C(=O)c1cc2c(cn1)nc(N)c1ncncc12)[C@@H]1COc2cc(C(F)(F)F)ccc21` [Example 224, 5-amino-N-methyl-N-((3S)-6-(trifluoromethyl)-2,3-dihydro-1-benzofuran-3-yl)pyrimido-[4,5-c][1,7]naphthyridine-9-carboxamide], the figures for the half-maximal inhibitory concentration (IC50) in the test with HCT116 MTAP null cells and with HCT116 WT cells were 424 nM and 3600 nM, respectively.

For `Cc1noc2c1c(N)nc1cc(F)c(C(=O)N(C)[C@@H]3COc4cc(C(F)(F)F)ccc43)cc12` [Example 225, 4-amino-7-fluoro-N,3-dimeth-yl-N-((3S)-6-(trifluoromethyl)-2,3-dihydro-1-benzofuran-3-yl)[1,2]oxazolo[4,5-c]quin-oline-8-carboxamide], the IC50 in the test on HCT116 MTAP null cells was determined as 403 nM; with HCT116 WT cells, 4940 nM.

For the compound `CN(C(=O)c1ccc2nc(N)c3cnn(C)c3c2c1)[C@@H]1COc2cc(C(F)(F)F)ncc21` [Example 227, 4-amino-N,1-dimethyl-N-((3S)-6-(trifluoromethyl)-2,3-dihydrofuro[3,2-c]pyridin-3-yl)-1H-pyrazolo[4,3-c]-quinoline-8-carboxamide], the values for the half-inhibitory concentration (IC50) with HCT116 MTAP null cells and in the test on HCT116 WT cells were 19 nM and 1480 nM, respectively.

Regarding `CCN(C(=O)c1ccc2nc(N)c3cnn(C)c3c2c1)[C@H]1COc2cc(C(F)(F)F)ccc21` [Example 229, 4-amino-N-ethyl-1-methyl-N-((3R)-6-(trifluoromethyl)-2,3-dihydro-1-benzofuran-3-yl)-1H-pyrazolo[4,3-c]quinoline-8-carboxamide], the IC50 with HCT116 MTAP null cells is 265 nM; in the test on HCT116 WT cells, 7740 nM.

Consider `CN(C(=O)c1ccc2nc(N)c3cnn(C)c3c2c1)[C@@H]1COc2cc(OC(F)(F)F)ccc21` [Example 230, 4-amino-N,1-dimethyl-N-((3S)-6-(trifluoromethoxy)-2,3-dihydro-1-benzofuran-3-yl)-1H-pyrazolo[4,3-c]quinoline-8-carboxamide], for which the IC50 stood at 7 nM in the test on HCT116 MTAP null cells and 530 nM in the test on HCT116 WT cells.

Consider `CN(C(=O)c1ccc2nc(N)c3cnn(C)c3c2c1)[C@@H]1COc2cc(C(F)(F)F)cc(Cl)c21` [Example 231, 4-amino-N-((3S)-4-chloro-6-(trifluoromethyl)-2,3-dihydro-1-benzofuran-3-yl)-N,1-dimethyl-1H-pyrazolo[4,3-c]-quinoline-8-carboxamide], for which the IC50 with HCT116 MTAP null cells came to 215 nM; in the test on HCT116 WT cells, 2060 nM.

`CN(C(=O)c1ccc2nc(N)c3cnn(C)c3c2c1)[C@H]1COc2cc(C(F)(F)F)cc(Cl)c21` [Example 232, 4-amino-N-((3R)-4-chloro-6-(trifluoromethyl)-2,3-dihydro-1-benzofuran-3-yl)-N,1-dimethyl-1H-pyrazolo[4,3-c]-quinoline-8-carboxamide]: the concentration for half-maximal inhibition (IC50) in the test with HCT116 MTAP null cells was determined as 222 nM; in the test with HCT116 WT cells, 2490 nM.

On to `CN(C(=O)c1ccc2nc(N)c3cnn(C)c3c2c1)[C@@H]1COc2cc(Br)ccc21` [Example 234, 4-amino-N-((3S)-6-bromo-2,3-dihydro-1-benzofuran-3-yl)-N,1-dimethyl-1H-pyrazolo[4,3-c]quinoline-8-carboxamide], for which the half-maximal inhibitory concentration (IC50) with HCT116 MTAP null cells is 8 nM; in the test with HCT116 WT cells, 613 nM.

With `CN(C(=O)c1ccc2nc(N)c3cnn(C)c3c2c1)[C@@H]1COc2cc(Br)cnc21` [Example 235, 4-amino-N-((3S)-6-bromo-2,3-dihydrofuro[3,2-b]pyridin-3-yl)-N,1-dimethyl-1H-pyrazolo[4,3-c]quinoline-8-carboxamide], the half-maximal inhibitory concentration (IC50) worked out at 219 nM with HCT116 MTAP null cells and 10000 nM with HCT116 WT cells.

For `CN(C(=O)c1ccc2nc(N)c3cnn(C)c3c2c1)[C@H]1COc2cc(Br)cnc21` [Example 236, 4-amino-N-((3R)-6-bromo-2,3-dihydrofuro[3,2-b]pyridin-3-yl)-N,1-dimethyl-1H-pyrazolo[4,3-c]quinoline-8-carboxamide], the IC50 in the test with HCT116 MTAP null cells is 786 nM; with HCT116 WT cells it was 24200 nM.

Consider `CN(C(=O)c1cc2c(cn1)nc(N)c1cnn(C)c12)[C@@H]1COc2cc(C(F)(F)F)ccc21` [Example 237, 4-amino-N,1-dimethyl-N-((3S)-6-(trifluoromethyl)-2,3-dihydro-1-benzofuran-3-yl)-1H-pyr-azolo[4,3-c][1,7]naphthyridine-8-carboxamide], for which the concentration for half-maximal inhibition (IC50) with HCT116 MTAP null cells stood at 12 nM; in the test with HCT116 WT cells it was 192 nM.

Consider `CN(C(=O)c1cc2c(cn1)nc(N)c1cnn(C)c12)[C@@H]1COc2cc(OC(F)(F)F)ccc21` [Example 239, 4-amino-N,1-dimethyl-N-((3S)-6-(trifluoromethoxy)-2,3-dihydro-1-benzofuran-3-yl)-1H-pyrazolo[4,3-c][1,7]-naphthyridine-8-carboxamide], for which the concentration for half-maximal inhibition (IC50) with HCT116 MTAP null cells turned out to be 10 nM; with HCT116 WT cells, 168 nM.

With `CN(C(=O)c1cc2c(cn1)nc(N)c1cnn(C)c12)[C@@H]1COc2cc(S(F)(F)(F)(F)F)ccc21` [Example 240, 4-amino-N,1-dimethyl-N-((3S)-6-(pentafluoro-lambda~6~-sulfanyl)-2,3-dihydro-1-benzofuran-3-yl)-1H-pyrazolo[4,3-c][1,7]naph-thyridine-8-carboxamide], the IC50 with HCT116 MTAP null cells came to 13 nM; in the test on HCT116 WT cells it was 250 nM.

For `CN(C(=O)c1cc2c(cn1)nc(N)c1cnn(C)c12)[C@@H]1COc2cc(-c3cnn(C(F)(F)F)c3)ccc21` [Example 241, 4-amino-N,1-dimethyl-N-((3S)-6-(1-(trifluoromethyl)-1H-pyrazol-4-yl)-2,3-dihydro-1-benzofuran-3-yl)-1H-pyr-azolo[4,3-c][1,7]naphthyridine-8-carboxamide], the results for the concentration for half-maximal inhibition (IC50) in the test on HCT116 MTAP null cells and in the test with HCT116 WT cells were 9 nM and 388 nM, respectively.
